Test results reported in ChEMBL document CHEMBL1201861, “Genomics of Drug Sensitity in Cancer screening data, Wellcome Trust Sanger Institute”.

Tests used:
Test in all cases: cells
Conditions in all cases: Homo sapiens
COR-L88 = assay type: functional, cell-based;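 note: growth inhibition of COR-L88 cells, read out with a cell viability assay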
Description: SANGER: Inhibition of human COR-L88 cell growth in a cell viability assay.

D-263MG = assay type: functional, cell-based
Description: SANGER: Inhibition of human D-263MG cell growth in a cell viability assay.

D283 Med = assay type: functional, cell-based
Description: SANGER: Inhibition of human D-283MED cell growth in a cell viability assay.

DSH1 = assay type: functional, cell-based;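 note: growth inhibition of human DSH1 cells, measured with a cell viability readout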
Description: SANGER: Inhibition of human DSH1 cell growth in a cell viability assay.

EC-GI-10 = assay type: functional, cell-based
Description: SANGER: Inhibition of human EC-GI-10 cell growth in a cell viability assay.

EM-2 = assay type: functional, cell-based;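 note: growth inhibition of EM-2 cells, read out with a cell viability assay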
Description: SANGER: Inhibition of human EM-2 cell growth in a cell viability assay.

ES3 = assay type: functional, cell-based;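 note: growth inhibition of ES3 cells, read out with a cell viability assay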
Description: SANGER: Inhibition of human ES3 cell growth in a cell viability assay.

ES8 = assay type: functional, cell-based;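 note: growth inhibition of human ES8 cells, read out with a cell viability assay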
Description: SANGER: Inhibition of human ES8 cell growth in a cell viability assay.

EW-11 = assay type: functional, cell-based;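 note: growth inhibition of human EW-11 cells, measured with a cell viability assay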
Description: SANGER: Inhibition of human EW-11 cell growth in a cell viability assay.

EW-24 = assay type: functional, cell-based;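 note: human EW-24 cancer cell line, growth inhibition read out via a cell viability assay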
Description: SANGER: Inhibition of human EW-24 cell growth in a cell viability assay.

GCIY = assay type: functional, cell-based;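 note: growth inhibition of the human GCIY cell line, read out by a cell viability assay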
Description: SANGER: Inhibition of human GCIY cell growth in a cell viability assay.

GOTO = assay type: functional, cell-based;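 note: growth inhibition of GOTO cells, read out by a cell viability assay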
Description: SANGER: Inhibition of human GOTO cell growth in a cell viability assay.

GR-ST = assay type: functional, cell-based
Description: SANGER: Inhibition of human GR-ST cell growth in a cell viability assay.

GT3TKB = assay type: functional, cell-based;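 note: growth inhibition of the cell line, read out with a cell viability assay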
Description: SANGER: Inhibition of human GT3TKB cell growth in a cell viability assay.

HCE-4 = assay type: functional, cell-based;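 note: cell viability assay measuring inhibition of growth in the human HCE-4 cell line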
Description: SANGER: Inhibition of human HCE-4 cell growth in a cell viability assay.

HCE-T = assay type: functional, cell-based;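 note: cell viability assay read-out, reporting inhibition of HCE-T cell growth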
Description: SANGER: Inhibition of human HCE-T cell growth in a cell viability assay.

HEL = assay type: functional, cell-based;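 note: growth inhibition of HEL cells, read out with a cell viability assay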
Description: SANGER: Inhibition of human HEL cell growth in a cell viability assay.

HOP-62 = assay type: functional, cell-based;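 note: cell growth inhibition determined with a viability assay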
Description: SANGER: Inhibition of human HOP-62 cell growth in a cell viability assay.

IST-MES1 = assay type: functional, cell-based;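 note: growth inhibition of IST-MES1 cells, measured with a cell viability assay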
Description: SANGER: Inhibition of human IST-MES1 cell growth in a cell viability assay.

J-RT3-T3-5 = assay type: functional, cell-based;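 note: cell viability assay measuring growth inhibition of human J-RT3-T3-5 cells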
Description: SANGER: Inhibition of human J-RT3-T3-5 cell growth in a cell viability assay.

JVM-2 = assay type: functional, cell-based;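 note: growth inhibition of JVM-2 cells determined by a cell viability assay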
Description: SANGER: Inhibition of human JVM-2 cell growth in a cell viability assay.

K5 = assay type: functional, cell-based
Description: SANGER: Inhibition of human K5 cell growth in a cell viability assay.

KALS-1 = assay type: functional, cell-based;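 note: growth inhibition of KALS-1 cells, determined with a cell viability assay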
Description: SANGER: Inhibition of human KALS-1 cell growth in a cell viability assay.

KE-37 = assay type: functional, cell-based;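 note: growth inhibition of KE-37 cells, read out with a cell viability assay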
Description: SANGER: Inhibition of human KE-37 cell growth in a cell viability assay.

KNS-42 = assay type: functional, cell-based;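 note: growth inhibition of KNS-42 cells, read out with a cell viability assay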
Description: SANGER: Inhibition of human KNS-42 cell growth in a cell viability assay.

KNS-81-FD = assay type: functional, cell-based;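 note: growth inhibition of KNS-81-FD cells, read out with a cell viability assay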
Description: SANGER: Inhibition of human KNS-81-FD cell growth in a cell viability assay.

KS-1 = assay type: functional, cell-based;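 note: growth inhibition of KS-1 cells, read out with a cell viability assay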
Description: SANGER: Inhibition of human KS-1 cell growth in a cell viability assay.

KU812 cell line = assay type: functional, cell-based;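 note: growth inhibition of KU812 cells, read out with a cell viability assay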
Description: SANGER: Inhibition of human KU812 cell growth in a cell viability assay.

KURAMOCHI = assay type: functional, cell-based;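 note: growth inhibition of KURAMOCHI cells, read out with a cell viability assay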
Description: SANGER: Inhibition of human KURAMOCHI cell growth in a cell viability assay.

KY821 = assay type: functional, cell-based;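 note: growth inhibition of human KY821 cells, read out by a cell viability assay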
Description: SANGER: Inhibition of human KY821 cell growth in a cell viability assay.

LB1047-RCC = assay type: functional, cell-based;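 note: inhibition of cell growth, determined with a cell viability assay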
Description: SANGER: Inhibition of human LB1047-RCC cell growth in a cell viability assay.

LB373-MEL-D = assay type: functional, cell-based;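 note: growth inhibition of the cell line, read out in a cell viability assay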
Description: SANGER: Inhibition of human LB373-MEL-D cell growth in a cell viability assay.

LNCaP-Clone-FGC = assay type: functional, cell-based
Description: SANGER: Inhibition of human LNCaP-Clone-FGC cell growth in a cell viability assay.

LS-123 = assay type: functional, cell-based
Description: SANGER: Inhibition of human LS-123 cell growth in a cell viability assay.

LS-411N = assay type: functional, cell-based
Lu-65 = assay type: functional, cell-based;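 note: growth inhibition of Lu-65 cancer cells, read out by a cell viability assay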
Description: SANGER: Inhibition of human LU-65 cell growth in a cell viability assay.

MLMA = assay type: functional, cell-based;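 note: growth inhibition of MLMA cells (human), determined through a cell viability readout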
Description: SANGER: Inhibition of human MLMA cell growth in a cell viability assay.

MOLT-4 = assay type: functional, cell-based;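 note: growth inhibition of MOLT-4 cells, determined with a cell viability readout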
Description: SANGER: Inhibition of human MOLT-4 cell growth in a cell viability assay.

MSTO-211H = assay type: functional, cell-based
Description: SANGER: Inhibition of human MSTO-211H cell growth in a cell viability assay.

NB5 = assay type: functional, cell-based;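 note: growth inhibition of NB5 cells, read out as cell viability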
Description: SANGER: Inhibition of human NB5 cell growth in a cell viability assay.

NCI-H1648 = assay type: functional, cell-based;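 note: cell viability assay measuring inhibition of NCI-H1648 cell growth, from the Sanger screening data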
Description: SANGER: Inhibition of human NCI-H1648 cell growth in a cell viability assay.

NCI-H1650 = assay type: functional, cell-based;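 note: growth inhibition of human NCI-H1650 cells measured by a cell viability assay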
Description: SANGER: Inhibition of human NCI-H1650 cell growth in a cell viability assay.

NCI-H23 = assay type: functional, cell-based;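 note: cell viability assay measuring growth inhibition of NCI-H23 cells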
Description: SANGER: Inhibition of human NCI-H23 cell growth in a cell viability assay.

NCI-H720 = assay type: functional, cell-based;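 note: growth inhibition of human NCI-H720 cells determined by a cell viability assay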
Description: SANGER: Inhibition of human NCI-H720 cell growth in a cell viability assay.

NEC8 = assay type: functional, cell-based;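 note: growth inhibition of human NEC8 cells, read out by a cell viability assay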
Description: SANGER: Inhibition of human NEC8 cell growth in a cell viability assay.

NMC-G1 = assay type: functional, cell-based;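 note: growth inhibition of the NMC-G1 cell line, measured with a cell viability read-out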
Description: SANGER: Inhibition of human NMC-G1 cell growth in a cell viability assay.

NTERA-2-cl-D1 = assay type: functional, cell-based;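 note: inhibition of cell growth, measured with a cell viability assay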
Description: SANGER: Inhibition of human NTERA-S-cl-D1 cell growth in a cell viability assay.

OMC-1 = assay type: functional, cell-based;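 note: growth inhibition of the OMC-1 cell line, measured by a cell viability assay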
Description: SANGER: Inhibition of human OMC-1 cell growth in a cell viability assay.

P30-OHK = assay type: functional, cell-based;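 note: growth inhibition of the P30-OHK cell line, read out with a cell viability assay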
Description: SANGER: Inhibition of human P30-OHK cell growth in a cell viability assay.

RH-1 = assay type: functional, cell-based;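 note: growth inhibition of human RH-1 cells, read out with a cell viability assay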
Description: SANGER: Inhibition of human RH-1 cell growth in a cell viability assay.

SBC-1 = assay type: functional, cell-based;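 note: cell viability assay measuring growth inhibition of the SBC-1 cell line, IC50 being the concentration that halves growth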
Description: SANGER: Inhibition of human SBC-1 cell growth in a cell viability assay.

SCC-15 = assay type: functional, cell-based;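 note: growth inhibition of SCC-15 cells, read out with a cell viability assay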
Description: SANGER: Inhibition of human SCC-15 cell growth in a cell viability assay.

SH-4 = assay type: functional, cell-based;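 note: growth inhibition of SH-4 cells, read out with a cell viability assay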
Description: SANGER: Inhibition of human SH-4 cell growth in a cell viability assay.

SHP77 = assay type: functional, cell-based, SHP-77;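 note: growth inhibition of human SHP-77 cells measured by a cell viability assay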
Description: SANGER: Inhibition of human SHP-77 cell growth in a cell viability assay.

SK-N-DZ = assay type: functional, cell-based;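 note: growth inhibition of the cancer cell line, read out through a viability assay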
Description: SANGER: Inhibition of human SK-N-DZ cell growth in a cell viability assay.

SNU-C2B = assay type: functional, cell-based;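 note: cell viability readout used to measure compound-driven suppression of SNU-C2B cell proliferation, IC50 marking half-maximal growth inhibition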
Description: SANGER: Inhibition of human SNU-C2B cell growth in a cell viability assay.

8-MG-BA = assay type: functional, cell-based;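 note: growth inhibition of 8-MG-BA cells, read out with a cell viability assay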
Description: SANGER: Inhibition of human 8-MG-BA cell growth in a cell viability assay.

ALL-PO = assay type: functional, cell-based
Description: SANGER: Inhibition of human ALL-PO cell growth in a cell viability assay.

BB65-RCC = assay type: functional, cell-based
Description: SANGER: Inhibition of human BB65-RCC cell growth in a cell viability assay.

BT-474 = assay type: functional, cell-based
Description: SANGER: Inhibition of human BT-474 cell growth in a cell viability assay.

C2BBe1 = assay type: functional, cell-based
Description: SANGER: Inhibition of human C2BBe1 cell growth in a cell viability assay.

TK-10 = assay type: functional, cell-based
Description: SANGER: Inhibition of human TK10 cell growth in a cell viability assay.

U-266 = assay type: functional, cell-based
Description: SANGER: Inhibition of human U-266 cell growth in a cell viability assay.

CCRF-CEM = assay type: functional, cell-based
Description: SANGER: Inhibition of human CCRF-CEM cell growth in a cell viability assay.

CGTH-W-1 = assay type: functional, cell-based
Description: SANGER: Inhibition of human CGTH-W-1 cell growth in a cell viability assay.

COLO-668 = assay type: functional, cell-based
Description: SANGER: Inhibition of human COLO-668 cell growth in a cell viability assay.

CO[C@@]12[C@H](COC(N)=O)C3=C(C(=O)C(C)=C(N)C3=O)N1C[C@@H]1N[C@@H]12 [MITOMYCIN]
IC50 (COR-L88): 319 nM | IC50 (D-263MG): 540 nM | IC50 (D283 Med): 221 nM | IC50 (DSH1): 96.5 nM | IC50 (EC-GI-10): 14900 nM | IC50 (EM-2): 1030 nM | IC50 (ES3): < 62.5 nM | IC50 (ES8): < 62.5 nM | IC50 (EW-11): 513 nM | IC50 (EW-24): 783 nM | IC50 (GCIY): 411 nM | IC50 (GOTO): 554 nM | IC50 (GR-ST): 121 nM | IC50 (GT3TKB): 318 nM | IC50 (HCE-4): 57.9 nM | IC50 (HCE-T): 372 nM | IC50 (HEL): 35.8 nM | IC50 (HOP-62): 20.2 nM | IC50 (IST-MES1): 4150 nM | IC50 (J-RT3-T3-5): 186 nM | IC50 (JVM-2): 397 nM | IC50 (K5): 1780 nM | IC50 (KALS-1): 129 nM | IC50 (KE-37): < 62.5 nM | IC50 (KNS-42): 1090 nM | IC50 (KNS-81-FD): 1590 nM | IC50 (KS-1): 364 nM | IC50 (KU812 cell line): 150 nM | IC50 (KURAMOCHI): 523 nM | IC50 (KY821): 1650 nM | IC50 (LB1047-RCC): < 62.5 nM | IC50 (LB373-MEL-D): 430 nM | IC50 (LNCaP-Clone-FGC): 450 nM | IC50 (LS-123): 1720 nM | IC50 (LS-411N): 322 nM | IC50 (Lu-65): 1010 nM | IC50 (MLMA): 1310 nM | IC50 (MOLT-4): < 62.5 nM | IC50 (MSTO-211H): 2820 nM | IC50 (NB5): 358 nM | IC50 (NCI-H1648): 523 nM | IC50 (NCI-H1650): 283 nM | IC50 (NCI-H23): 1210 nM | IC50 (NCI-H720): 1540 nM | IC50 (NEC8): 187 nM | IC50 (NMC-G1): 217 nM | IC50 (NTERA-2-cl-D1): < 62.5 nM | IC50 (OMC-1): 390 nM | IC50 (P30-OHK): < 62.5 nM | IC50 (RH-1): 49.6 nM | IC50 (SBC-1): 448 nM | IC50 (SCC-15): 864 nM | IC50 (SH-4): 387 nM | IC50 (SHP77): 1380 nM | IC50 (SK-N-DZ): 2390 nM | IC50 (SNU-C2B): 295 nM | IC50 (8-MG-BA): 104 nM | IC50 (ALL-PO): 31 nM | IC50 (BB65-RCC): 145 nM | IC50 (BT-474): 2620 nM | IC50 (C2BBe1): 9280 nM | IC50 (TK-10): 528 nM | IC50 (U-266): 866 nM | IC50 (CCRF-CEM): 61.7 nM | IC50 (CGTH-W-1): 38.7 nM | IC50 (COLO-668): < 62.5 nM
